Where two headings read alike, the source gives them in different places.

We go through four compounds from patent US20020103228A1, “Composition and method for use of pyridinium derivatives in cosmetic and therapeutic applications” (TORRENT PHARMACEUTICALS LTD., priority 1999, published 2002).

The subject of experiment [1] is arterial stiffness. As to conditions: diabetes induced (Wolffenbutel 1998); cited from earlier work.
For experiment [2], the system named is diabetic rats. To be noted: cited from earlier work.
Experiment [3] has as its system rat model of diabetic retinopathy. As to conditions: cited from earlier work.
Experiment [4] has as its system diabetic rats. To be noted: cited from earlier work. This is another data set of the same source.
Experiment [5] concerns old rats. As to conditions: Li et al (1996); cited from earlier work.
Experiment [6] concerns the target T1, AGE-BSA (Bos taurus, UniProt P02769).
T1 construct: Bovine serum albumin (fraction V) (BSA); from tissue; host or cells: bovine serum (fraction V); glycated in house with 1.6 M glucose at 37 °C for 16 weeks
Put plainly: In-vitro AGE breaking activity by ELISA. To be noted: 37° C., 24 hours. The format is biochemical, Bovine. The essentials:
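BSA glycated with 1.6 M glucose in PBS at 37° C for 16 weeks, then dialyzed; 10 μg/ml AGE-BSA incubated with test compounds 24 h at 37° C. Remaining AGE-BSA coated at 5–20 ng/well and quantified by ELISA (anti-AGE-BSA primary, HRP anti-rabbit, OPD, OD 450–620 nm); % breaking calculated versus untreated 20 ng AGE-BSA.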
(An ELISA detects its analyte on a solid surface through an enzyme-linked reagent.)

In experiment [7] the test system is Rat-Tail Tendon collagen of diabetic male wister rats. As to conditions: 8 weeks of treatment. As for the experimental part:
To evaluate AGE breaker efficacy of compounds of formula (I) the process of aging was mimicked by induction of diabetes in male wister rats. Diabetes was induced in male wister rats (by repeated STZ injections) to mimic the process of aging and formation of AGE. Diabetic male wister rats were treated with compounds of formula (I) for a period of 8 weeks after induction of diabetes and collagen solubility was measured in Rat-Tail Tendon. Rat Tail Tendon were selected because of their similarity with skin collagen (i.e. Type I collagen). After 8 weeks of treatment the “control” and “treated” groups of animals were sacrificed and tail tendons were homogenized, digested with hydrochloric acid and the supernatant of both the groups of animals was assayed for hydroxyprolin for acid soluble collagen contents as per method of Stegemann and Stalder (clinica Chimica Acta, 18 (1967) 267-273).
Diabetes and aging are degenerative process where normal proteins like collagen become cross-linked. The cross linking of skin collagen can lead to complications like Aging. To test the ability of compounds of invention to break pre-formed AGE, diabetic animals were treated for 8 weeks with the compounds. After the treatment the collagen solubility was estimated to determine their AGE breaking activity.

A short description of experiment [8]: Free radical scavenging activity on ABTS radical cation. The format is biochemical. The essentials: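 ABTS radical cation generated with horseradish peroxidase and 1.08 mM H2O2 stock in PBS, preincubated 30 min at 30 °C. Serial dilutions were added, and absorbance at 730 nm was read immediately against PBS blank. % activity = (OD test/OD control ×100) − 100.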

T1 sequence (P02769 25-607): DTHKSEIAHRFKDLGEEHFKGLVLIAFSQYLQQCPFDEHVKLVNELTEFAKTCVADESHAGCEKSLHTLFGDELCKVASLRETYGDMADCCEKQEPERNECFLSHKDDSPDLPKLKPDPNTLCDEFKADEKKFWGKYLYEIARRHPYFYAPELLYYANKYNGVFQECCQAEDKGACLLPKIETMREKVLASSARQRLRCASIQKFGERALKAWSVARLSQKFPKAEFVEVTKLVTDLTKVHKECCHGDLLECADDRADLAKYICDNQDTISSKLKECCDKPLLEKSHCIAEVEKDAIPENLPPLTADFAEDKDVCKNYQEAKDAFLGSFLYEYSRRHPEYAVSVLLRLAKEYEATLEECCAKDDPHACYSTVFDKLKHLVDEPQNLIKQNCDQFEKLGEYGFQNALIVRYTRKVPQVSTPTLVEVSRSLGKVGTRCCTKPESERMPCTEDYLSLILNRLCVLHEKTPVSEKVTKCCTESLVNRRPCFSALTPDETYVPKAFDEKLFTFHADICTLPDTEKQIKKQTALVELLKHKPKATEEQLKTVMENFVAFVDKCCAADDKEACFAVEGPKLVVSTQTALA

On to `Cc1sc[n+](CC(=O)c2ccccc2)c1C.[Cl-]` [ALT-711], for which, in experiment [1], the “arterial stiffness and arterial compliance” value was “reverse diabetes induced increase of arterial stiffness and improve arterial compliance”.

For `N=C(N)NN` [Aminoguanidine], in experiment [2] (Yamauchi (1997)), the “development of diabetic nephropathy” value is listed as “inhibits development of diabetic nephropathy”. The “thickening of glomerular basement membrane” value in experiment [2] (diabetic rats (Ellis 1991)) is “ameliorate thickening of glomerular basement membrane”. Besides, the rise in albuminuria entry in experiment [2] (experimental diabetic rats (Soulis-Liparota, 1991)) is on record as “attenuate the rise in albuminuria”. Further, the “progression of diabetic retinopathy” value in experiment [3] is listed as “retard progression of diabetic retinopathy”. Moreover, the nerve conduction velocity entry in experiment [4] is “improve nerve conduction velocity”. Besides, the “tissue damage in aging” value in experiment [5] is on record as “significantly prevent tissue damage”.

In the case of `CS(=O)(=O)NNC(=O)c1ccc[n+](CC(=O)c2cccs2)c1.[Br-]` [Compound 5, 1-(2-thien-2′-yl-2-oxoethyl)-3-(methanesulfonylhydrazinocarbonyl)pyridinium bromide], the “% Breakage” value in experiment [6] (10 mM test compound) was 16%; in experiment [6] (50 mM test compound), 68%. Also, the “% Improvement in collagen solubility with respect to untreated control subject.” value in experiment [7] (10.0 mg/kg) worked out at 88.80%. Also, the “Relative Free Radical Scavenging Activity (%) on ABTS” value in experiment [8] (11.5 μM) worked out at 47.2%; in experiment [8] (23.0 μM), 65.6%; in experiment [8] (46.0 μM), 83.7%; in experiment [8] (92.5 μM), 100%.

As to `O=C(C[n+]1cccc(C(=O)NNC(=O)c2ccc[n+](CC(=O)NC3CC3)c2)c1)NC1CC1.[Cl-].[Cl-]` [Compound 39, N,N′-bis-[3-carbonyl-1-(2-cyclopropylamino-2-oxoethyl)pyridinium]hydrazine dichloride], the “% Breakage” value in experiment [6] (5 mM test compound) is on record as 22.8%. In experiment [7] (6.0 mg/kg), the “% Improvement in collagen solubility with respect to untreated control subject.” value is listed as 28.00%. The “Relative Free Radical Scavenging Activity (%) on ABTS” value in experiment [8] (11.5 μM) was found to be 43.0%; in experiment [8] (23.0 μM) it was 62.8%; in experiment [8] (46.0 μM) it was 95.6%; in experiment [8] (92.5 μM) it was 98%.
